These are literature values, as cited in patent US11856951B2, “Method for managing resistance to insecticidal traits and chemicals using pheromones” (Provivi, Inc., priority 2015, dated 2024).

For one series, the system named is mated female H. armigera. To be noted: mated females.
In another series the test system is H. armigera males. The conditions noted are these: wind tunnel assays.

As for `CCCCCCCCCCCCCCCCCC(=O)O` [C18:0], in the series with mated female H. armigera, the electroantennogram response result is “strong electroantennogram responses”. Regarding `C=C` [ethylene], the “correlation of concentration with calling behaviour” value in the series with virgin female H. zea is “positively correlated”. Take `CCCCCCCCCCCCCCCC(=O)O` [C16:0]: the electroantennogram response result in the series on mated female H. armigera is recorded as “strong electroantennogram responses”. In the case of `CCCCCCCCCCCCCC(=O)O` [C14:0], in the series on mated female H. armigera, the electroantennogram response result is listed as “strong electroantennogram responses”. For the molecule `CCCC/C=C\CCCCCCCCCCO` [Z11-16:OH], the “effect on male upwind flight” value with H. armigera males is listed as “inhibits male upwind flight”.

As for `CCCC(C)CCCC(C)CCCC(C)C(=O)OC` (centres unmarked) [TMTD, methyl 2,6,10-trimethyltridecanoate], in the series on Female E. heros, the attraction to lures entry is recorded as “attracted”. In the case of `O=Cc1ccccc1` [benzaldehyde], the “attractiveness of an oviposition substrate” value in the series with mated H. armigera is given as “significantly increase the attractiveness”. Consider `CCCCCCC=O` [Heptanal], for which the “attractiveness of an oviposition substrate” value with mated H. armigera is listed as “significantly increase the attractiveness”.
